Test results taken from patent US12291504B2 (University of Pittsburgh—Of the Commonwealth System of …, priority 2018, dated 2025).

Experiments:
SULT1A3 = SULT1A3 (Homo sapiens, UniProt P0DMM9); assay: Pre-steady state binding of PAP to SULT1A3 (stopped-flow fluorescence); set-up: Wild-type and mutant SULT1A3 coding regions were inserted into a pGEX-6P expression vector; N-His/GST/MBP triple-tag (N, cleaved yes); made in house; host or cells: E. coli BL21(DE3); details: PAP release, saturating CMP8
Experimental: The effect of CMP8 on PAP binding to SULT1A3 was monitored using a stopped-flow spectrofluorimeter (λex=290 nm, λem≥330 nm (cutoff filter)). […] Each kobs value was determined in triplicate and the averaged values are shown. kon and koff are given, respectively, by the slopes and intercepts obtained from linear least-squares fitting of the kobs vs [PAP] plots.
(§1) Pre-Steady State Binding Studies. The pre-steady state binding of PAP to SULT1A3 was monitored via ligand-induced enzyme fluorescence changes in SULT1A3 using an Applied Photophysics SX20 stopped-flow spectrofluorimeter (32). […] All reactions were pseudo first order in [PAP]. The observed rate constant (kobs) at a given [PAP] was taken as the average of three independent progress curves each obtained from a single-exponential fit of 6-9 averaged, binding progress curves. The rate constants, kon and koff, were obtained from the slopes and intercepts predicted by linear least-squares analysis of four-points kobs vs [PAP] plots.
Given that CMP8 interacts with the SULT1A3 cap, it was reasoned it might inhibit by stabilizing the cap-closed form(s) of the enzyme. To test this hypothesis, the microscopic rate constants for nucleotide binding and release were determined in the presence and absence of saturating CMP8. The binding reactions were monitored via intrinsic fluorescence changes associated with ligand binding (30-32) (see, Methods). The resulting kobs vs [PAP] plots are presented in FIG. 4. kon and koff are obtained, respectively, from the slopes and intercepts of the plots (30,31), see Table C. […] Thus, CMP8 does indeed slow nucleotide release by increasing Kiso and thus stabilizing the closed form of the cap.
as §1, with “(29).” for “(32).”

SULT2A1 = target: T1, SULT2A1 (Homo sapiens, UniProt Q06520); assay: SULT2A1 inhibition test; format: biochemical; details: at 50 uM
T1 sequence (Q06520 1-285): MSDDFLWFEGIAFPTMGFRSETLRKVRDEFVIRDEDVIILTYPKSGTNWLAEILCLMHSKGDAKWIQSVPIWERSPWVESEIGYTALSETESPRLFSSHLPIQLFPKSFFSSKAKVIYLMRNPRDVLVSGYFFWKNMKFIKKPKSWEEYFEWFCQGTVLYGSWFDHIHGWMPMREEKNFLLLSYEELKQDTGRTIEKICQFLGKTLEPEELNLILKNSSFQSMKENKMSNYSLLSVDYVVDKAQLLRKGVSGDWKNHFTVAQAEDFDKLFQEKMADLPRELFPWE

Chain of SULT1A3 (P0DMM9 whole entry): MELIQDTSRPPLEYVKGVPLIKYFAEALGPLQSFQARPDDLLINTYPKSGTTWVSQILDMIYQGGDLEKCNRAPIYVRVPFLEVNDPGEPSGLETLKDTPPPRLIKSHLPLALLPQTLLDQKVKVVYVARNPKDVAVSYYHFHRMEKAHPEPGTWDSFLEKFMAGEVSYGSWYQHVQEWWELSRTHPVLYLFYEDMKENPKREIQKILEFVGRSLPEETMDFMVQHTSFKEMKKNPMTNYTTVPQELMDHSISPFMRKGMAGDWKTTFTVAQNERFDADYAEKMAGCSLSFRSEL

Row | koff (+CMP8)/koff (−CMP8), ratio of nucleotide off-rate constants (SULT1A3) | inhibition of SULT2A1 (SULT2A1) | Structure (SMILES)
1 | 0.41 (±0.05) | – | CC(C)Cc1ccc2cc(CO)ccc2n1 [Compound 8, (2-Isobutylquinolin-6-yl)methanol]
2 | – | no inhibition was detected | CC(C)Cc1ccc2cc(CCC(N)=O)ccc2n1 [Compound 12]
